Reference: ChEMBL document CHEMBL4422667, “Synthetic derivatives of the natural product 13-amino 2-desoxy-4-epi-pulchellin inhibit STAT3 signaling and induce G2/M arrest and death of colon cancer cells” (Bioorg Med Chem Lett, 2019)
pIC50: −log10 of the molar value. ≈ marks a conversion by molar mass, not a printed value.

Legend:
HCT-116 = assay: cells; settings: Homo sapiens, HCT-116, 72 h
Description: Cytotoxicity against human HCT116 cells assessed as reduction in cell viability after 72 hrs by MTT assay

[1] = Aqueous solubility of compound at 25 degC; type: physicochemical; settings: water
HT-29 = assay: cells; settings: Homo sapiens, HT-29, 72 h
Description: Cytotoxicity against human HT-29 cells assessed as reduction in cell viability after 72 hrs by MTT assay

Structure (SMILES) | pIC50 (HCT-116) | solubility [1] [µg/mL] | pIC50 (HT-29)
C[C@@H]1C[C@@H]2OC(=O)[C@@H](CNCCN3CCCC3)[C@H]2C[C@]2(C)[C@@H](O)CC[C@@H]12 (relative stereo) | 4.64 | – | –
C=C1C(=O)O[C@H]2C[C@@H](C)[C@@H]3CC[C@H](O)[C@@]3(C)C[C@H]12 [PSEUDOGUAIANOLIDE] | 5.35 | 200 (≈ 799 µM) | 5.47
CCN(CC)C[C@@H]1C(=O)O[C@H]2C[C@@H](C)[C@@H]3CC[C@H](O)[C@@]3(C)C[C@@H]21 (relative stereo) | 5.26 | – | 5.46
CC(C)NC[C@@H]1C(=O)O[C@H]2C[C@@H](C)[C@@H]3CC[C@H](O)[C@@]3(C)C[C@@H]21 (relative stereo) | 4.75 | – | –
C[C@@H]1C[C@@H]2OC(=O)[C@@H](CN3CCN(C)CC3)[C@H]2C[C@]2(C)[C@@H](O)CC[C@@H]12 (relative stereo) | < 4.52 | – | –
C[C@@H]1C[C@@H]2OC(=O)[C@@H](CN3CCC(N(C)C)CC3)[C@H]2C[C@]2(C)[C@@H](O)CC[C@@H]12 (relative stereo) | 4.91 | – | –
C[C@@H]1C[C@@H]2OC(=O)[C@@H](CN3CCC(O)CC3)[C@H]2C[C@]2(C)[C@@H](O)CC[C@@H]12 (relative stereo) | 5.27 | – | 5.50
CC(O)CNC[C@@H]1C(=O)O[C@H]2C[C@@H](C)[C@@H]3CC[C@H](O)[C@@]3(C)C[C@@H]21 (mixture of isomers) | < 4.52 | – | –
C[C@@H]1C[C@@H]2OC(=O)[C@@H](CNCCCN(C)C)[C@H]2C[C@]2(C)[C@@H](O)CC[C@@H]12 (relative stereo) | < 4.52 | – | –
CCCCCCNC[C@@H]1C(=O)O[C@H]2C[C@@H](C)[C@@H]3CC[C@H](O)[C@@]3(C)C[C@@H]21 (relative stereo) | < 4.52 | – | –
C[C@@H]1C[C@@H]2OC(=O)[C@@H](CN3CCCCC3)[C@H]2C[C@]2(C)[C@@H](O)CC[C@@H]12 (relative stereo) | 5.08 | – | 5.41
CCCCNC[C@@H]1C(=O)O[C@H]2C[C@@H](C)[C@@H]3CC[C@H](O)[C@@]3(C)C[C@@H]21 (relative stereo) | < 4.52 | – | –
C[C@@H]1C[C@@H]2OC(=O)[C@@H](CN3CCOCC3)[C@H]2C[C@]2(C)[C@@H](O)CC[C@@H]12 (relative stereo) | 4.73 | – | –

Other lines, results leading:

pIC50 (HCT-116) | solubility [1] [µg/mL] | pIC50 (HT-29) | Structure (SMILES)
5.29 | – | 5.48 | C[C@@H]1C[C@@H]2OC(=O)[C@@H](CN(C)C)[C@H]2C[C@]2(C)[C@@H](O)CC[C@@H]12 (relative stereo)
4.56 | – | – | COC(CNC[C@@H]1C(=O)O[C@H]2C[C@@H](C)[C@@H]3CC[C@H](O)[C@@]3(C)C[C@@H]21)OC (relative stereo)
< 4.52 | – | – | C[C@@H]1C[C@@H]2OC(=O)[C@@H](CNCCN(C)C)[C@H]2C[C@]2(C)[C@@H](O)CC[C@@H]12 (mixture of isomers)
5.62 | – | 5.79 | CCN(C)C[C@@H]1C(=O)O[C@H]2C[C@@H](C)[C@@H]3CC[C@H](O)[C@@]3(C)C[C@@H]21 (relative stereo)
4.81 | – | – | C[C@@H]1C[C@@H]2OC(=O)[C@@H](CN3CCNCC3)[C@H]2C[C@]2(C)[C@@H](O)CC[C@@H]12 (relative stereo)
5.31 | – | 5.47 | C=C1C(=O)O[C@@H]2C3O[C@]3(C)CC/C=C(\C)CC[C@@H]12 (stereo not given in full)
< 4.52 | – | – | C[C@@H]1C[C@@H]2OC(=O)[C@@H](CNCCCO)[C@H]2C[C@]2(C)[C@@H](O)CC[C@@H]12 (relative stereo)
< 4.52 | – | – | CCCNC[C@@H]1C(=O)O[C@H]2C[C@@H](C)[C@@H]3CC[C@H](O)[C@@]3(C)C[C@@H]21 (relative stereo)
< 4.52 | – | – | CNC[C@@H]1C(=O)O[C@H]2C[C@@H](C)[C@@H]3CC[C@H](O)[C@@]3(C)C[C@@H]21 (relative stereo)
